Assay results published in PubChem BioAssay AID1963869 (Molecular Pharmacology Branch, DTP, NCI, 2024).

Tested on: KRAS patient-derived spheroids with HUVEC/MSC, viability
Assay: Anticancer human tumor 323965-272-R-J2-PDC patient-derived pancreatic carcinoma cell line growth inhibition [KRAS2]
Details: for viability, T/C: stronger effect = lower value
Procedure, shortened: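 KRAS-mutant tumor cells were grown as spheroids with HUVEC endothelial cells and human MSCs as stroma. Targeted agents were tested alone and with KRAS pathway inhibitors. Doses started at or near clinical Cmax, or 10 microM, descending half-log.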

[1] = curve of first compound, second compound 0.1 µM
[2] = curve of first compound, second compound 0.316 µM
[3] = curve of first compound, second compound 1 µM
[4] = curve of first compound, second compound 3.16 µM
[5] = curve of first compound, second compound 10 µM
[6] = second compound 0.1 µM, first compound 0.0316 µM
[7] = second compound 0.1 µM, first compound 0.1 µM
[8] = second compound 0.1 µM, first compound 0.316 µM
[9] = second compound 0.1 µM, first compound 1 µM
[10] = second compound 0.1 µM, first compound 3.16 µM
[11] = second compound 0.1 µM, first compound 10 µM
[12] = second compound 0.316 µM, first compound 0.0316 µM
[13] = second compound 0.316 µM, first compound 0.1 µM
[14] = second compound 0.316 µM, first compound 0.316 µM
[15] = second compound 0.316 µM, first compound 1 µM
[16] = second compound 0.316 µM, first compound 3.16 µM
[17] = second compound 0.316 µM, first compound 10 µM
[18] = second compound 1 µM, first compound 0.0316 µM
[19] = second compound 1 µM, first compound 0.1 µM
[20] = second compound 1 µM, first compound 0.316 µM
[21] = second compound 1 µM, first compound 1 µM
[22] = second compound 1 µM, first compound 3.16 µM
[23] = second compound 1 µM, first compound 10 µM
[24] = second compound 3.16 µM, first compound 0.0316 µM
[25] = second compound 3.16 µM, first compound 0.1 µM
[26] = second compound 3.16 µM, first compound 0.316 µM
[27] = second compound 3.16 µM, first compound 1 µM
[28] = second compound 3.16 µM, first compound 3.16 µM
[29] = second compound 3.16 µM, first compound 10 µM
[30] = second compound 10 µM, first compound 0.0316 µM
[31] = second compound 10 µM, first compound 0.1 µM
[32] = second compound 10 µM, first compound 0.316 µM
[33] = second compound 10 µM, first compound 1 µM
[34] = second compound 10 µM, first compound 3.16 µM
[35] = second compound 10 µM, first compound 10 µM
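Further: spheroids exposed to agents for 7 days.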
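Wherever viability, T/C is given: 100% = DMSO vehicle control viability.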

Compound: CC(C)NCC(C(=O)N1CCN(c2ncnc3c2C(C)CC3O)CC1)c1ccc(Cl)cc1 (configuration not stated) + C=CC(=O)N1CCN(c2nc(=O)n(-c3c(C)ccnc3C(C)C)c3nc(-c4c(O)cccc4F)c(F)cc23)C(C)C1
- IC50 [1]: 175 nM
- IC50 [2]: 80.4 nM
- IC50 [3]: 159 nM
- IC50 [4]: 53.5 nM
- IC50 [5]: < 31.6 nM
- viability, T/C [6]: 62.4%
- viability, T/C [7]: 56.3%
- viability, T/C [8]: 43.5%
- viability, T/C [9]: 32.4%
- viability, T/C [10]: 27.1%
- viability, T/C [11]: 23.8%
- viability, T/C [12]: 56.8%
- viability, T/C [13]: 49.2%
- viability, T/C [14]: 40.2%
- viability, T/C [15]: 33%
- viability, T/C [16]: 26%
- viability, T/C [17]: 22.6%
- viability, T/C [18]: 61.2%
- viability, T/C [19]: 55%
- viability, T/C [20]: 42.3%
- viability, T/C [21]: 29.8%
- viability, T/C [22]: 26.4%
- viability, T/C [23]: 27.7%
- viability, T/C [24]: 52.1%
- viability, T/C [25]: 47.3%
- viability, T/C [26]: 37.8%
- viability, T/C [27]: 28.3%
- viability, T/C [28]: 26.9%
- viability, T/C [29]: 27.4%
- viability, T/C [30]: 42.8%
- viability, T/C [31]: 49.7%
- viability, T/C [32]: 30.5%
- viability, T/C [33]: 21.5%
- viability, T/C [34]: 22.9%
- viability, T/C [35]: 18%

Compound: COc1cc2nccc(Oc3ccc(NC(=O)C4(C(=O)Nc5ccc(F)cc5)CC4)cc3)c2cc1OC + C=CC(=O)N1CCN(c2nc(=O)n(-c3c(C)ccnc3C(C)C)c3nc(-c4c(O)cccc4F)c(F)cc23)C(C)C1
- IC50 [1]: > 10000 nM
- IC50 [2]: > 10000 nM
- IC50 [3]: > 10000 nM
- IC50 [4]: > 10000 nM
- IC50 [5]: 1190 nM
- viability, T/C [6]: 54.7%
- viability, T/C [7]: 56%
- viability, T/C [8]: 58.8%
- viability, T/C [9]: 62.6%
- viability, T/C [10]: 64.2%
- viability, T/C [11]: 57.8%
- viability, T/C [12]: 52.8%
- viability, T/C [13]: 55.1%
- viability, T/C [14]: 58.1%
- viability, T/C [15]: 61.8%
- viability, T/C [16]: 62.5%
- viability, T/C [17]: 59.8%
- viability, T/C [18]: 54.5%
- viability, T/C [19]: 52.3%
- viability, T/C [20]: 59.9%
- viability, T/C [21]: 61.7%
- viability, T/C [22]: 63.8%
- viability, T/C [23]: 61.5%
- viability, T/C [24]: 57.1%
- viability, T/C [25]: 56.9%
- viability, T/C [26]: 56.2%
- viability, T/C [27]: 61.2%
- viability, T/C [28]: 58.6%
- viability, T/C [29]: 55.6%
- viability, T/C [30]: 47.6%
- viability, T/C [31]: 54.2%
- viability, T/C [32]: 45.5%
- viability, T/C [33]: 61.9%
- viability, T/C [34]: 29.4%
- viability, T/C [35]: 44.2%

Compound: COC(=O)c1ccc2c(C(=Nc3ccc(N(C)C(=O)CN4CCN(C)CC4)cc3)c3ccccc3)c(O)[nH]c2c1 + CC1OCC2(CCN(c3cnc(Sc4ccnc(N)c4Cl)c(N)n3)CC2)C1N
- IC50 [1]: > 10000 nM
- IC50 [2]: 5080 nM
- IC50 [3]: < 31.6 nM
- IC50 [4]: < 31.6 nM
- IC50 [5]: < 31.6 nM
- viability, T/C [6]: 78.8%
- viability, T/C [7]: 85.7%
- viability, T/C [8]: 81.8%
- viability, T/C [9]: 76.3%
- viability, T/C [10]: 79.1%
- viability, T/C [11]: 73.4%
- viability, T/C [12]: 74.8%
- viability, T/C [13]: 59.2%
- viability, T/C [14]: 61.1%
- viability, T/C [15]: 65.2%
- viability, T/C [16]: 50%
- viability, T/C [17]: 45.8%
- viability, T/C [18]: 45.3%
- viability, T/C [19]: 47.9%
- viability, T/C [20]: 53.2%
- viability, T/C [21]: 41.6%
- viability, T/C [22]: 43.9%
- viability, T/C [23]: 41.6%
- viability, T/C [24]: 34.6%
- viability, T/C [25]: 38.7%
- viability, T/C [26]: 35.2%
- viability, T/C [27]: 36%
- viability, T/C [28]: 31.9%
- viability, T/C [29]: 33.3%
- viability, T/C [30]: 31.8%
- viability, T/C [31]: 30.3%
- viability, T/C [32]: 29.7%
- viability, T/C [33]: 27.5%
- viability, T/C [34]: 23.4%
- viability, T/C [35]: 23.2%

Compound: COc1cc(OC)cc(N(CCNC(C)C)c2ccc3ncc(-c4cnn(C)c4)nc3c2)c1
- viability, T/C (compound 0.0316 µM): 102% [middle of 5 runs]
- viability, T/C (compound 0.1 µM): 101% [middle of 5 runs]
- viability, T/C (compound 0.316 µM): 102% [middle of 5 runs]
- viability, T/C (compound 1 µM): 103% [middle of 5 runs]
- viability, T/C (compound 3.16 µM): 105% [middle of 5 runs]
- viability, T/C (compound 10 µM): 87.5% [middle of 5 runs]
- IC50 (curve of compound): > 10000 nM

Compound: CC1(C)CCC(CN2CCN(c3ccc(C(=O)NS(=O)(=O)c4ccc(NCC5CCOCC5)c([N+](=O)[O-])c4)c(Oc4cnc5[nH]ccc5c4)c3)CC2)=C(c2ccc(Cl)cc2)C1 + C=CC(=O)N1CCN(c2nc(=O)n(-c3c(C)ccnc3C(C)C)c3nc(-c4c(O)cccc4F)c(F)cc23)C(C)C1
- IC50 [1]: 1100 nM
- IC50 [2]: 1320 nM
- IC50 [3]: 1260 nM
- IC50 [4]: 1210 nM
- IC50 [5]: 81.8 nM
- viability, T/C [6]: 59.2%
- viability, T/C [7]: 59.6%
- viability, T/C [8]: 63.3%
- viability, T/C [9]: 52.7%
- viability, T/C [10]: 17%
- viability, T/C [11]: 4.37%
- viability, T/C [12]: 64.6%
- viability, T/C [13]: 58.1%
- viability, T/C [14]: 56.3%
- viability, T/C [15]: 60.4%
- viability, T/C [16]: 18.8%
- viability, T/C [17]: 5.39%
- viability, T/C [18]: 61.1%
- viability, T/C [19]: 61.9%
- viability, T/C [20]: 60.3%
- viability, T/C [21]: 59.5%
- viability, T/C [22]: 12%
- viability, T/C [23]: 2.97%
- viability, T/C [24]: 62%
- viability, T/C [25]: 62.3%
- viability, T/C [26]: 57.8%
- viability, T/C [27]: 56.9%
- viability, T/C [28]: 15.8%
- viability, T/C [29]: 5.2%
- viability, T/C [30]: 61%
- viability, T/C [31]: 37.6%
- viability, T/C [32]: 43.4%
- viability, T/C [33]: 36.3%
- viability, T/C [34]: 15.8%
- viability, T/C [35]: 2.88%
